Consider 5 molecules from PubChem BioAssay (NCI).

Broadly, the TGI is the concentration giving total growth inhibition. A higher TGI goes with lower sensitivity of the cells. A word on the GI50: it is the concentration giving 50% growth inhibition.

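These data come from cells grown in 96-well plates and exposed to compound for 48 hours at five concentrations. The concentration for 50% growth inhibition is given as GI50. TGI denotes the concentration required for complete inhibition of growth.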

Some test systems named below: NCI-H522 lung; HOP-92 NSCLC; HOP-62 NSCLC; SN12C renal; EKVX NSCLC; UO-31 renal; SK-MEL-5 melanoma; HCT-15 colon; MDA-MB-231 breast; SNB-19 CNS.
Common to all, as to experiment: DTP human tumour cell line panel, 48 h

Consider `COC1CCC(O)C(CO)O1` (stereo not given), for which the TGI in the assay on NCI-H522 lung is 26.9 µM; in the assay on HOP-92 NSCLC, > 100 µM; in the assay on HOP-62 NSCLC, > 100 µM; with SN12C renal, > 100 µM; with EKVX NSCLC, > 100 µM; in the assay with UO-31 renal it was > 100 µM. For the same molecule, the concentration for total growth inhibition (TGI) in the assay with SK-MEL-5 melanoma and in the assay with HCT-15 colon was > 100 µM in each case.
Consider `NCC(=O)N[C@H]1c2ccsc2/C(=N/O)[C@H]1O`, for which the TGI with MDA-MB-231 breast, in the assay on HOP-92 NSCLC, in the assay on HOP-62 NSCLC, with SN12C renal, in the assay with EKVX NSCLC and with UO-31 renal was > 100 µM in each case. In addition, the TGI with SK-MEL-5 melanoma and with HCT-15 colon was > 100 µM in each case.
As for `COc1ccccc1C1C(C#N)=C(N)SC(N)=C1C#N`, the GI50 is 29.9 µM in the assay with NCI-H522 lung; 21.6 µM with MDA-MB-231 breast; > 100 µM with SNB-19 CNS; 47.1 µM in the assay on HOP-92 NSCLC; > 100 µM in the assay on HOP-62 NSCLC; 15.5 µM with SN12C renal. Further, the GI50 in the assay on EKVX NSCLC is > 100 µM; in the assay on UO-31 renal it was 82.5 µM; with SK-MEL-5 melanoma, 90.5 µM; in the assay with HCT-15 colon it was 81.3 µM. In addition, the TGI with NCI-H522 lung is 76.2 µM; in the assay with MDA-MB-231 breast it was 60.7 µM; in the assay on SNB-19 CNS, > 100 µM; with HOP-92 NSCLC, > 100 µM; in the assay with HOP-62 NSCLC, > 100 µM; in the assay with SN12C renal it was 42 µM. The TGI in the assay with EKVX NSCLC, with UO-31 renal, with SK-MEL-5 melanoma and with HCT-15 colon was > 100 µM throughout.
`CCOC(=O)c1ccc(N2C(=O)/C(=C/c3ccc(N(CCC#N)CCC#N)cc3)N=C2c2cc([N+](=O)[O-])ccc2Cl)cc1`: the TGI in the assay with NCI-H522 lung, in the assay on SNB-19 CNS, with HOP-92 NSCLC, with HOP-62 NSCLC, in the assay with SN12C renal and with EKVX NSCLC was > 100 µM throughout. The TGI with UO-31 renal, in the assay with SK-MEL-5 melanoma and in the assay with HCT-15 colon was > 100 µM throughout.
Regarding `CC1OC1C(=O)P(=O)(O)O` (stereo not given), the TGI with NCI-H522 lung, with MDA-MB-231 breast, in the assay with SNB-19 CNS, with HOP-92 NSCLC, in the assay with HOP-62 NSCLC and with SN12C renal was > 100 µM each time. The TGI in the assay on EKVX NSCLC, in the assay on UO-31 renal, with SK-MEL-5 melanoma and with HCT-15 colon was > 100 µM throughout.
